Laboratory results reported in ChEMBL document CHEMBL1146940, “Structure-activity relationship study between Ornithyl-Proline and Lysyl-Proline based tripeptidomimics as angiotensin-converting enzyme inhibitors” (Bioorg Med Chem Lett, 2006).
Square brackets hold non-standard residues; d marks the D form. Peptide text beside a SMILES is read from it. Trp(5-OH) = N[C@@H](Cc1c[nH]c2ccc(O)cc12)C(=O)O; NMeW = CN[C@@H](Cc1c[nH]c2ccccc12)C(=O)O; Dip = N[C@H](C(=O)O)C(c1ccccc1)c1ccccc1; β3hW = N[C@H](CC(=O)O)Cc1c[nH]c2ccccc12; Tic = O=C(O)[C@@H]1Cc2ccccc2CN1; 3Thi = N[C@@H](Cc1ccsc1)C(=O)O; Cha = N[C@@H](CC1CCCCC1)C(=O)O; Orn = NCCC[C@H](N)C(=O)O

Columns and labels:
[1] = target: Angiotensin-converting enzyme (Bos taurus) (UniProt P12820); assay: Inhibition of ACE in bovine kidney; parameters: concentration or dose not given beside the values; details: concentration not given here
Chain of Angiotensin-converting enzyme (Bos taurus) (P12820 whole entry, looked up): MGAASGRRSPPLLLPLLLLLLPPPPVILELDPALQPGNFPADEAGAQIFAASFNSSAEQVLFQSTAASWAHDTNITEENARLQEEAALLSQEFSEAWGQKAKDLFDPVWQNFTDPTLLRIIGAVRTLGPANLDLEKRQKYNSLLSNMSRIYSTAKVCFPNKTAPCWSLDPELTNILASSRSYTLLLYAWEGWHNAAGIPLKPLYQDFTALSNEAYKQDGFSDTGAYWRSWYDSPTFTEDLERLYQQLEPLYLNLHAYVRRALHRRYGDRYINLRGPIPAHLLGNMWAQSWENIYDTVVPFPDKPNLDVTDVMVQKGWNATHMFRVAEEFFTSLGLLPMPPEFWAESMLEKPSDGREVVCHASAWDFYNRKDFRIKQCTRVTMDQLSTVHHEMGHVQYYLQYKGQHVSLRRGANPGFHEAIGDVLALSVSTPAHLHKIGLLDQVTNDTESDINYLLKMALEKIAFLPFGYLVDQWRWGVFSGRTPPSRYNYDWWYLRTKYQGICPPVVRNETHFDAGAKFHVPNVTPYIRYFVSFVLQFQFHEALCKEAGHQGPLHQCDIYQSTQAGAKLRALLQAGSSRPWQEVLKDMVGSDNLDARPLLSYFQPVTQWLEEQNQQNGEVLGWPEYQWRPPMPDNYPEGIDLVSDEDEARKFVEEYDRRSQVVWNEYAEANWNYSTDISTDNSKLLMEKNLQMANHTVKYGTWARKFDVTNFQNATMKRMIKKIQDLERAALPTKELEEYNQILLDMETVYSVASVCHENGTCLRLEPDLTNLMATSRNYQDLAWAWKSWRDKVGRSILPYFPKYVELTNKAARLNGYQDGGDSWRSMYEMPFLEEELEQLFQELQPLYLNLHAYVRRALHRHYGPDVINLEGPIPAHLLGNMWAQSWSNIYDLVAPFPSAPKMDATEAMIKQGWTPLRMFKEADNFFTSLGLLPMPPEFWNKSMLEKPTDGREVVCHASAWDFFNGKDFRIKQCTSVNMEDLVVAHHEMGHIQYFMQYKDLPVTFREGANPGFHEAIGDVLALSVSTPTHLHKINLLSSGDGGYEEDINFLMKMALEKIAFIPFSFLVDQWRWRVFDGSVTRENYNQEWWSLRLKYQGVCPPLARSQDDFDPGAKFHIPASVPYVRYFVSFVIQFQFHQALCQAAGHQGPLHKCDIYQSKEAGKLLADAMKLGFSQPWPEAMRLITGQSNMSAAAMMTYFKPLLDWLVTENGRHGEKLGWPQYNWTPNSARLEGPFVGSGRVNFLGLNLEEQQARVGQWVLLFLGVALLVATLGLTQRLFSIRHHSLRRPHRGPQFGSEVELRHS

[2] = target: Angiotensin-converting enzyme (Bos taurus) (UniProt P12820); assay: Activity against ACE in bovine kidney

SMILES | inhibition [1] [%] | Activity [2] [mU/ml]
NCCCC[C@H](NC(=O)CCc1ccc(O)cc1)C(=O)N1CCC[C@H]1C(=O)O | 29.3 | 9.52
NCCCC[C@H](NC(=O)C[C@@H](N)Cc1ccccc1)C(=O)N1CCC[C@H]1C(=O)O | 22.6 | 10.4
NCCCC[C@H](NC(=O)[C@@H](N)Cc1ccco1)C(=O)N1CCC[C@H]1C(=O)O | 10.1 | 12.1
NCCC[C@H](NC(=O)CCc1ccc(O)cc1)C(=O)N1CCC[C@H]1C(=O)O | 23.8 | 10.3
NCCC[C@H](NC(=O)CCc1nc2ccccc2[nH]1)C(=O)N1CCC[C@H]1C(=O)O | 65.5 | 4.7
NCCC[C@H](NC(=O)C[C@@H](N)Cc1ccccc1)C(=O)N1CCC[C@H]1C(=O)O | 31.7 | 9.21
NCCC[C@H](NC(=O)[C@@H](N)Cc1ccco1)C(=O)N1CCC[C@H]1C(=O)O | 35.6 | 8.67
NCCCC[C@H](NC(=O)[C@@H](N)Cc1ccsc1)C(=O)N1CCC[C@H]1C(=O)O (H-[3Thi]-Lys-Pro-OH) | 13.3 | 11.7
NCCC[C@H](NC(=O)[C@@H](N)Cc1ccsc1)C(=O)N1CCC[C@H]1C(=O)O (H-[3Thi]-[Orn]-Pro-OH) | 74.7 | 3.41
NCCCC[C@H](NC(=O)[C@@H](N)CC1CCCCC1)C(=O)N1CCC[C@H]1C(=O)O (H-[Cha]-Lys-Pro-OH) | 3.71 | 13.1
NCCC[C@H](NC(=O)[C@@H](N)CC1CCCCC1)C(=O)N1CCC[C@H]1C(=O)O (H-[Cha]-[Orn]-Pro-OH) | 30.8 | 9.32
NCCCC[C@H](NC(=O)[C@@H](N)C(c1ccccc1)c1ccccc1)C(=O)N1CCC[C@H]1C(=O)O (H-[Dip]-Lys-Pro-OH) | 33.8 | 8.91
NCCC[C@H](NC(=O)[C@@H](N)C(c1ccccc1)c1ccccc1)C(=O)N1CCC[C@H]1C(=O)O (H-[Dip]-[Orn]-Pro-OH) | 27.7 | 9.74
CN[C@@H](Cc1c[nH]c2ccccc12)C(=O)N[C@@H](CCCCN)C(=O)N1CCC[C@H]1C(=O)O (H-[NMeW]-Lys-Pro-OH) | 39.1 | 8.2
CN[C@@H](Cc1c[nH]c2ccccc12)C(=O)N[C@@H](CCCN)C(=O)N1CCC[C@H]1C(=O)O (H-[NMeW]-[Orn]-Pro-OH) | 63.6 | 4.88
NCCCC[C@H](NC(=O)[C@@H]1Cc2ccccc2CN1)C(=O)N1CCC[C@H]1C(=O)O (H-[Tic]-Lys-Pro-OH) | 19.4 | 10.8
NCCC[C@H](NC(=O)[C@@H]1Cc2ccccc2CN1)C(=O)N1CCC[C@H]1C(=O)O (H-[Tic]-[Orn]-Pro-OH) | 25 | 10.1
NCCC[C@H](NC(=O)[C@@H](N)Cc1c[nH]c2ccc(O)cc12)C(=O)N1CCC[C@H]1C(=O)O (H-[Trp(5-OH)]-[Orn]-Pro-OH) | 68.8 | 4.2
NCCCC[C@H](NC(=O)C[C@@H](N)Cc1c[nH]c2ccccc12)C(=O)N1CCC[C@H]1C(=O)O (H-[β3hW]-Lys-Pro-OH) | 30.2 | 9.4
NCCC[C@H](NC(=O)C[C@@H](N)Cc1c[nH]c2ccccc12)C(=O)N1CCC[C@H]1C(=O)O (H-[β3hW]-[Orn]-Pro-OH) | 9.13 | 12.2
